Data: ChEMBL document CHEMBL5120959, “Pyrrospirones K-Q, Decahydrofluorene-Class Alkaloids from the Marine-Derived Fungus Penicillium sp. SCSIO 41512” (J Nat Prod, 2022)
Values after ≈ are worked out from the molar mass of the structure shown.

How the values were obtained:
Bacillus subtilis = test: Antibacterial activity against Bacillus subtilis BS01 assessed as reduction in microbial growth after 12 hrs by microbroth dilution method; type: functional
[1] = system: Bacillus amyloliquefaciens; test: Antibacterial activity against Bacillus amyloliquefaciens GDMCC 60233 assessed as reduction in microbial growth after 12 hrs by microbroth dilution method; type: functional
Staphylococcus aureus [2] = test: Antibacterial activity against Staphylococcus aureus ATCC 6538 assessed as reduction in microbial growth after 12 hrs by microbroth dilution method; type: functional
Staphylococcus aureus [3] = test: Antibacterial activity against methicillin-resistant Staphylococcus aureus assessed as reduction in microbial growth after 12 hrs by microbroth dilution method; type: functional
Streptococcus agalactiae = test: Antibacterial activity against Streptococcus agalactiae ATCC 13813 assessed as reduction in microbial growth after 12 hrs by microbroth dilution method; type: functional
[4] = target: Tyrosine-protein phosphatase non-receptor type 6 (Homo sapiens, UniProt P29350); test: Inhibition of human SHP1
Chain of Tyrosine-protein phosphatase non-receptor type 6 (P29350 whole entry): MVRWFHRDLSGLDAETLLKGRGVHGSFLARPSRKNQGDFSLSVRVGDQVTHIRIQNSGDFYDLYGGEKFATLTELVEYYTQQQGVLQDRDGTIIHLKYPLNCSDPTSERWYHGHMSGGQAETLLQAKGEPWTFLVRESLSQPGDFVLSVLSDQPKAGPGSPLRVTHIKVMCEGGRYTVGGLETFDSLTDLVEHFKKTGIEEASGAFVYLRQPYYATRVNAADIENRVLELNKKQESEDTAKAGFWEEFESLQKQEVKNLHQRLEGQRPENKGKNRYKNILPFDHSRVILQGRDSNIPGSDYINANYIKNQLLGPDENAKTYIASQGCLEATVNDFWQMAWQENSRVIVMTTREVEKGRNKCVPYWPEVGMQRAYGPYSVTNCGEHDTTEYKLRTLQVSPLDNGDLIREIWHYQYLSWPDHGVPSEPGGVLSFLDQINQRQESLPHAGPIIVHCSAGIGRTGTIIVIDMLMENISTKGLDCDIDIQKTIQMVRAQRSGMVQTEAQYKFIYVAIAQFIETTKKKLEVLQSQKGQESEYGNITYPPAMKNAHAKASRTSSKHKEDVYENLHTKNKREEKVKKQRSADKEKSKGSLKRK

[5] = target: T1, Receptor-type tyrosine-protein phosphatase C (Homo sapiens, UniProt P08575); test: Inhibition of human CD45
T1 sequence (P08575 whole entry): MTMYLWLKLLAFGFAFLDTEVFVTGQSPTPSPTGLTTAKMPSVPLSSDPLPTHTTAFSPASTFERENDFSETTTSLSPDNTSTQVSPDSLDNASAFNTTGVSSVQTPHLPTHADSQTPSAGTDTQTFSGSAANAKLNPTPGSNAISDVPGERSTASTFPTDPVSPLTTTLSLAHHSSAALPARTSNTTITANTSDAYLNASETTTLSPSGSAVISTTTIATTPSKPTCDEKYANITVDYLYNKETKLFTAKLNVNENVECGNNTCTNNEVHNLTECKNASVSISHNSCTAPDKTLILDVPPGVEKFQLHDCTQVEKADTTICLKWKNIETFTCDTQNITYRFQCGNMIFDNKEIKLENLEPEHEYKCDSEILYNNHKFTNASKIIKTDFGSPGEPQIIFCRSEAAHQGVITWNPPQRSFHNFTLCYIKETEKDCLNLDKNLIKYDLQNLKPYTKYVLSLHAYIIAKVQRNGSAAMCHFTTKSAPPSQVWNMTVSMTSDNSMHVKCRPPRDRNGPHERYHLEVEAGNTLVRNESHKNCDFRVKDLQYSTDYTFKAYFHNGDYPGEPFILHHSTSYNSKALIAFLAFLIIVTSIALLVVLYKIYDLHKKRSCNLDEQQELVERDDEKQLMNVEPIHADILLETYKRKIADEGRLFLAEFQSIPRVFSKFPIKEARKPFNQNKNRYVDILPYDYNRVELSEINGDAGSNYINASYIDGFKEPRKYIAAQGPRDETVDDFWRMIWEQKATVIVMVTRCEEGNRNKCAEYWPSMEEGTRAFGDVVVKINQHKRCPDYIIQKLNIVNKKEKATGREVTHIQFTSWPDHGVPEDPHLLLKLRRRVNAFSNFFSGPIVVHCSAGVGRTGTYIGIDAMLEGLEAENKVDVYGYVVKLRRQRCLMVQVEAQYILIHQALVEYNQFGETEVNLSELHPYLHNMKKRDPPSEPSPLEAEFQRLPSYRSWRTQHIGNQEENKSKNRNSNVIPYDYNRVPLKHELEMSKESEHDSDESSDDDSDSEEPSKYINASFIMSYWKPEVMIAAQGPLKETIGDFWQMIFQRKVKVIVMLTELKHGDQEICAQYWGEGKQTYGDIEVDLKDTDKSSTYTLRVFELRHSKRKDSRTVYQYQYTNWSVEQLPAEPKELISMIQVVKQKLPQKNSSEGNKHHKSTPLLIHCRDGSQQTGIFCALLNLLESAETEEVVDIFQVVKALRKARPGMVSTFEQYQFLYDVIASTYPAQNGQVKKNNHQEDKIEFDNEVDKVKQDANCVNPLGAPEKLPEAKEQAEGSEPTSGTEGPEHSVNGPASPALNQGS

[6] = target: T2, Tyrosine-protein phosphatase non-receptor type 1 (Homo sapiens, UniProt P18031); test: Inhibition of human PTP1B
T2 sequence (P18031 whole entry): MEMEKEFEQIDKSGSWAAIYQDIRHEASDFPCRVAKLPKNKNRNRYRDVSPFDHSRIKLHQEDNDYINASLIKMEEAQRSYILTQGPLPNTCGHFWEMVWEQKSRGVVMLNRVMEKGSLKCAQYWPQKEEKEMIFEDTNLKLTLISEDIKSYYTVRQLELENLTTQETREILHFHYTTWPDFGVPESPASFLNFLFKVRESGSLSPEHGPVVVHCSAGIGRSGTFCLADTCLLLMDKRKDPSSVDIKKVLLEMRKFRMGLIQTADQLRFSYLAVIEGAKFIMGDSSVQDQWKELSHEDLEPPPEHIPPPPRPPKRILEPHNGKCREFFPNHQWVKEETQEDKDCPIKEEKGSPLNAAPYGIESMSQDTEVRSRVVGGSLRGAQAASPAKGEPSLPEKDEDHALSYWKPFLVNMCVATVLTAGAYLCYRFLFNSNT

[7] = target: T3, Tyrosine-protein phosphatase non-receptor type 2 (Homo sapiens, UniProt P17706); test: Inhibition of human TCPTP
T3 sequence (P17706 whole entry): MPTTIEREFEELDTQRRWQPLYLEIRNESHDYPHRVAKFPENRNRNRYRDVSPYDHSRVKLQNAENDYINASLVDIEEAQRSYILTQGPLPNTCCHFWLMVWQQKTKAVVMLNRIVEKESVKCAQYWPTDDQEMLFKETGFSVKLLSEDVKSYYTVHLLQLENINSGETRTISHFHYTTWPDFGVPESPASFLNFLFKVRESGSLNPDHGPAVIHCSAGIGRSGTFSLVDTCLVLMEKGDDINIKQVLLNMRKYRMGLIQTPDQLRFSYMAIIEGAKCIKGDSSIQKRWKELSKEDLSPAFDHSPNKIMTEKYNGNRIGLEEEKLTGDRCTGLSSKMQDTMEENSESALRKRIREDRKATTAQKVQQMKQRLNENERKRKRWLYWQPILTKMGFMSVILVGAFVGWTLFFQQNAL

[8] = target: Receptor-type tyrosine-protein phosphatase F (Homo sapiens, UniProt P10586); test: Inhibition of human LAR
Chain of Receptor-type tyrosine-protein phosphatase F (P10586 whole entry): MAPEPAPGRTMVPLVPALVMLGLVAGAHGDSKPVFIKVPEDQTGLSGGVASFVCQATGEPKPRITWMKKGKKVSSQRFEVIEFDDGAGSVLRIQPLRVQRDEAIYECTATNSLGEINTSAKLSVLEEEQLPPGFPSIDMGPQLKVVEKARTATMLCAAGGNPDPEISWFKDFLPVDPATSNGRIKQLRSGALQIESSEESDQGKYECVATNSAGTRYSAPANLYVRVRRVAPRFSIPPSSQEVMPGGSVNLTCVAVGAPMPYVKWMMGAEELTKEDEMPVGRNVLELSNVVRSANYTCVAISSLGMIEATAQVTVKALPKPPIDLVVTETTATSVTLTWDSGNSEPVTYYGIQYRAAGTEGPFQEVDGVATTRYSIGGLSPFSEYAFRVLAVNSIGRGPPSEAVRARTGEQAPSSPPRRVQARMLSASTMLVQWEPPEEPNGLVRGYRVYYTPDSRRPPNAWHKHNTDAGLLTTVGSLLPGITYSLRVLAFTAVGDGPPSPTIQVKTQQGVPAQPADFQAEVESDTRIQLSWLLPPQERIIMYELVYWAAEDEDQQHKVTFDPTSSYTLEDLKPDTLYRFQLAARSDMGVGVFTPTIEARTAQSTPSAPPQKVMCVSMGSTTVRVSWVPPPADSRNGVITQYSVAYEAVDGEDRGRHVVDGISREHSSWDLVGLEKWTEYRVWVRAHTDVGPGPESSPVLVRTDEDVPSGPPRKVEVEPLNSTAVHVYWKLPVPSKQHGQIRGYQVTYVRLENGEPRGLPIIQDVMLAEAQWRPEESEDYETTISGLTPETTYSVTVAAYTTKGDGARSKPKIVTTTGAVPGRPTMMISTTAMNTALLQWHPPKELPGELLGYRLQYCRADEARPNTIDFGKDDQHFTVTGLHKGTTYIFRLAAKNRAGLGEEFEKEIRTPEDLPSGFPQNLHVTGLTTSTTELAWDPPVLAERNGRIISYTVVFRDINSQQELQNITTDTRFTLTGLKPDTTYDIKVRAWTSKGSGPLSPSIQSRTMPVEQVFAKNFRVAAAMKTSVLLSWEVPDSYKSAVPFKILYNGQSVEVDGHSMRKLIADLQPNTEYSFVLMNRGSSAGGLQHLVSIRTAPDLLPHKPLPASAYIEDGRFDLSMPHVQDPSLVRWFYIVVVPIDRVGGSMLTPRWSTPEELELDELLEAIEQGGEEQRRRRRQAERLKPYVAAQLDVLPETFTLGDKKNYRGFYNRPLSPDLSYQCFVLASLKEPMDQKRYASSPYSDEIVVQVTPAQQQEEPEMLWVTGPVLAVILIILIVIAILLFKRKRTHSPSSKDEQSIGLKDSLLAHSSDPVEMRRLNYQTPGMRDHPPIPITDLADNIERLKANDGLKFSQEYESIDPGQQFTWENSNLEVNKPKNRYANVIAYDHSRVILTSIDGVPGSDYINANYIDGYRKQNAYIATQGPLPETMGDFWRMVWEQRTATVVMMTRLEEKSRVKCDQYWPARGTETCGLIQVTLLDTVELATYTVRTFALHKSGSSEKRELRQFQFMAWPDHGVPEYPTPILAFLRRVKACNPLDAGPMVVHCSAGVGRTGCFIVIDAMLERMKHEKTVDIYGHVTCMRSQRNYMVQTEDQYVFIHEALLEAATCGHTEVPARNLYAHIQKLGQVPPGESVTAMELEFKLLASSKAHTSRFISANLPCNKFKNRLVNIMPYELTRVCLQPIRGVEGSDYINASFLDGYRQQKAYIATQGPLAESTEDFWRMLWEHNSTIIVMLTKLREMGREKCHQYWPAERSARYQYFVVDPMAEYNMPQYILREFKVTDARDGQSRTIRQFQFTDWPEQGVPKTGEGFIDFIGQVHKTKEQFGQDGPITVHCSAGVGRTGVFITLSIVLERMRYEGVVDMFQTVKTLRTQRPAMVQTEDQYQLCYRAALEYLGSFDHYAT

NCI-H1975 = test: Cytotoxicity against human NCI-H1975 cells assessed as reduction in cell viability after 24 hrs by CCK8 assay; type: functional, cell-based; conditions: NCI-H1975, 24 h
Escherichia coli [9] = test: microbe, parasite or virus in culture; type: functional; conditions: ATCC 25922, time 12 hrs
Description: Antibacterial activity against Escherichia coli ATCC 25922 assessed as reduction in microbial growth after 12 hrs by microbroth dilution method

Escherichia coli [10] = test: Antibacterial activity against Escherichia coli assessed as reduction in microbial growth after 12 hrs by broth microdilution method; type: functional
Staphylococcus aureus [11] = test: Antibacterial activity against methicillin-resistant Staphylococcus aureus assessed as reduction in microbial growth after 12 hrs by broth microdilution method; type: functional

| Compound | MIC (Bacillus subtilis) [µg/mL] | MIC [1] [µg/mL] | MIC (Staphylococcus aureus [2]) [µg/mL] | MIC (Staphylococcus aureus [3]) [µg/mL] | MIC (Streptococcus agalactiae) [µg/mL] | IC50 [4] [µM] | IC50 [5] [µM] | IC50 [6] [µM] | IC50 [7] [µM] | IC50 [8] [µM] | IC50 (NCI-H1975) [µM] | MIC (Escherichia coli [9]) [µg/mL] | MIC (Escherichia coli [10]) [µg/mL] | MIC (Staphylococcus aureus [11]) [µg/mL] |
| --- | --- | --- | --- | --- | --- | --- | --- | --- | --- | --- | --- | --- | --- | --- |
| CN[C@@H]1[C@@H](O)[C@@H](O[C@@H]2[C@@H](O)[C@H](O[C@H]3O[C@H](CN)CC[C@H]3N)[C@@H](N)C[C@H]2N)OC[C@]1(C)O.O=S(=O)(O)O | 0.5 | 1 | 2 | 5 | 10 |  |  |  |  |  |  |  |  |  |
| CC(=O)c1ccc(NC2=C(Cl)C(=O)c3ccccc3C2=O)cc1 |  |  |  |  |  | 0.29 |  |  |  |  |  |  |  |  |
| C=C[C@@]1(C)C=C(C)[C@@H]2[C@@H]3[C@H](Oc4ccc(cc4)C[C@@H]4C(=O)NC(=O)[C@@H]4C(=O)[C@H]31)[C@@H]1[C@@H](C)C[C@@H](C)C[C@]12C | 20 | 50 | 100 | 50 | 100 |  | 8.1 | 25 | 14 | > 200 | 75 | 50 (≈ 99.7 µM) |  |  |
| CO[C@@]12Cc3ccc(cc3)O[C@H]3[C@@H]4[C@H]5C(=O)[C@](C[C@H](O)OO[C@@]5(C)[C@H]5O[C@@]5(C)[C@H]4[C@]4(C)C[C@H](C)C[C@H](C)[C@@H]34)(C1)C(=O)N2 | 50 | 50 | 50 | 50 | 50 | > 200 | > 200 | > 200 | > 200 | > 200 | > 80 | 50 (≈ 86 µM) |  |  |
| CO[C@@H]1C2Cc3ccc(cc3)O[C@H]3[C@@H]4[C@H]5C(=O)[C@@]1(C[C@H](O)[C@@]5(C)C=C(C)[C@H]4[C@]1(C)C[C@H](C)C[C@H](C)[C@@H]31)C(=O)N2 | 50 | 100 | 100 | 100 | 100 | 80 | > 200 | 66 | > 200 | > 200 |  | 50 (≈ 93.7 µM) | 2 | 2 |
| C[C@@H]1C[C@H](C)[C@H]2[C@H]3Oc4ccc(cc4)C[C@]4(O)C/C(=C(/O)[C@H]5[C@H](C)[C@H]6O[C@@]6(C)[C@H]([C@H]35)[C@]2(C)C1)C(=O)N4 | 20 | 20 | 50 | 50 | 50 |  |  |  |  |  |  | 20 (≈ 40.5 µM) |  |  |
| C=C[C@@]1(C)C=C(C)[C@@H]2[C@@H]3[C@@H](Oc4ccc(cc4)C[C@@]4(O)C/C(=C(/O)[C@H]31)C(=O)N4)[C@@H]1[C@@H](C)C[C@@H](C)C[C@]12C | 10 | 20 | 20 | 20 | 20 | 100 | 100 | 89 | 92 | > 200 | 72 | 20 (≈ 39.7 µM) |  |  |
